Patent US6376692B1, “Zirconium alkoxytris (β-Diketonate), process for manufacturing the same, and liquid composition for formation of PZT film” (Kabushikikaisha Kojundokagaku Kenkyusho, priority 1999, dated 2002)
Where two headings read alike, the source gives them in different places.

Conditions: room temperature

## CC(C)(C)C(=O)C=C([O-])C(C)(C)C.CC(C)(C)C(=O)C=C([O-])C(C)(C)C.CC(C)(C)C(=O)C=C([O-])C(C)(C)C.CC(C)[O-].[Zr+4] [Zr(OiPr)(dpm)3, zirconium isopropoxy tris(dipivaloylmethanate)]
Butyl Acetate
  amount dissolved in 1 liter of the solvent: 460 grams in 1 liter of the solven
Hexane
  amount dissolved in 1 liter of the solvent: 620 grams in 1 liter of the solven
THF
  amount dissolved in 1 liter of the solvent: 980 grams in 1 liter of the solven
Toluene
  amount dissolved in 1 liter of the solvent: 1100 grams in 1 liter of the solven
n-Butyl Ether
  amount dissolved in 1 liter of the solvent: 430 grams in 1 liter of the solven

## CC(C)(C)C(=O)C=C(O)C(C)(C)C.CC(C)(C)C(=O)C=C(O)C(C)(C)C.CC(C)(C)C(=O)C=C(O)C(C)(C)C.CC(C)(C)C(=O)C=C(O)C(C)(C)C.[Zr] [Zr(dpm)4]
Butyl Acetate
  amount dissolved in 1 liter of the solvent: 180 grams in 1 liter of the solven
Hexane
  amount dissolved in 1 liter of the solvent: 430 grams in 1 liter of the solven
THF
  amount dissolved in 1 liter of the solvent: 1020 grams in 1 liter of the solven
Toluene
  amount dissolved in 1 liter of the solvent: 290 grams in 1 liter of the solven
n-Butyl Ether
  amount dissolved in 1 liter of the solvent: 240 grams in 1 liter of the solven
